Experimental data published in ChEMBL document CHEMBL3616422, “A novel family of diarylpyrimidines (DAPYs) featuring a diatomic linker: Design, synthesis and anti-HIV activities” (Bioorg Med Chem, 2015).

Columns and labels:
[1] = Selectivity index, ratio of CC50 for uninfected human MT4 cells to EC50 for wild type HIV 1 3B infected in human MT4 cells; assay type: toxicity, cell-based; settings: uninfected and infected with wild type HIV-1 3B, read-out: Ratio CC50/EC50
[2] = test system: Human immunodeficiency virus 2; test: Antiviral activity against wild type HIV 2 ROD infected in human MT4 cells assessed as protection against virus-induced cytopathogenicity after 5 days by MTT assay; assay type: functional, organism-based; settings: Human immunodeficiency virus 2, ISOLATE ROD, MT4, 120 h
[3] = test system: Human immunodeficiency virus 1; test: Antiviral activity against HIV 1 RES056 harboring reverse transcriptase K103N/Y181C double mutant infected in human MT4 cells assessed as protection against virus-induced cytopathogenicity after 5 days by MTT assay; assay type: functional, organism-based; settings: Human immunodeficiency virus 1, RES056, MT4, 120 h
[4] = target: Human immunodeficiency virus type 1 reverse transcriptase (Human immunodeficiency virus 1, UniProt Q72547); test: Inhibition of recombinant HIV1 Reverse transcriptase p66/p51 using poly (rA)-oligo (dT) as template primer after 40 mins by spectrofluorometric analysis
[5] = Cytotoxicity against uninfected human MT4 cells assessed as decrease in cell viability after 5 days by MTT assay; assay type: cell-based
[6] = test system: Human immunodeficiency virus 1; test: Antiviral activity against wild type HIV 1 3B infected in human MT4 cells assessed as protection against virus-induced cytopathogenicity after 5 days by MTT assay; assay type: functional, organism-based; settings: Human immunodeficiency virus 1, 3B, MT4, 120 h

Compound	selectivity ratio [1]	EC50 [2]	EC50 [3]	IC50 [4]	CC50 at 120 h [5]	EC50 [6]
N#Cc1ccc(Nc2nccc(NCc3ccccc3)n2)cc1	294	> 0.48 µg/mL	> 0.48 µg/mL	20 nM	1590 nM	5.3 nM
N#Cc1ccc(Nc2nccc(NCc3ccccc3Cl)n2)cc1	18600	> 92.3 µg/mL	> 92.3 µg/mL	24 nM	275000 nM	14.9 nM
N#Cc1ccc(Nc2nccc(NCc3cccc(Cl)c3)n2)cc1	175	> 0.7 µg/mL	> 0.7 µg/mL	18 nM	2080 nM	11.9 nM
N#Cc1ccc(Nc2nccc(NCc3ccc(Cl)cc3)n2)cc1	71	> 1.1 µg/mL	> 1.1 µg/mL	48 nM	3280 nM	47.6 nM
N#Cc1ccc(Nc2nccc(NCc3ccccc3Br)n2)cc1	4680	> 74.1 µg/mL	> 74.1 µg/mL	71 nM	195000 nM	42.1 nM
N#Cc1ccc(Nc2nccc(NCc3cccc(Br)c3)n2)cc1	86	> 0.67 µg/mL	> 0.67 µg/mL	24 nM	1760 nM	20.3 nM
N#Cc1ccc(Nc2nccc(NCc3ccc(Br)cc3)n2)cc1	85	> 1.28 µg/mL	> 1.28 µg/mL	29 nM	3370 nM	39.4 nM
N#Cc1ccc(Nc2nccc(NCc3ccccc3F)n2)cc1	1080	> 0.88 µg/mL	> 0.88 µg/mL	16 nM	2760 nM	2.6 nM
N#Cc1ccc(Nc2nccc(NCc3cccc(F)c3)n2)cc1	333	> 0.45 µg/mL	> 0.45 µg/mL	16 nM	1410 nM	4.4 nM
N#Cc1ccc(Nc2nccc(NCc3ccc(F)cc3)n2)cc1	23	> 0.55 µg/mL	> 0.55 µg/mL	382 nM	1720 nM	72 nM
Cc1ccc(CNc2ccnc(Nc3ccc(C#N)cc3)n2)cc1	297	> 0.79 µg/mL	> 0.79 µg/mL	13 nM	2500 nM	8.2 nM
COc1ccccc1CNc1ccnc(Nc2ccc(C#N)cc2)n1	937	> 27.3 µg/mL	> 27.3 µg/mL	936 nM	82400 nM	87.5 nM
COc1cccc(CNc2ccnc(Nc3ccc(C#N)cc3)n2)c1	518	> 0.79 µg/mL	> 0.79 µg/mL	18 nM	2380 nM	4.5 nM
COc1ccc(CNc2ccnc(Nc3ccc(C#N)cc3)n2)cc1	60	> 0.78 µg/mL	> 0.78 µg/mL	85 nM	2350 nM	39.3 nM
N#Cc1ccc(Nc2nccc(NCc3ccccc3C(F)(F)F)n2)cc1	107	> 41.6 µg/mL	> 41.6 µg/mL	1540 nM	113000 nM	1060 nM
N#Cc1ccc(Nc2nccc(NCc3cccc(C(F)(F)F)c3)n2)cc1	9	> 0.71 µg/mL	> 0.71 µg/mL	122 nM	1920 nM	206 nM
N#Cc1ccc(Nc2nccc(NCc3ccc(C(F)(F)F)cc3)n2)cc1	24	> 1.11 µg/mL	> 1.11 µg/mL	70 nM	3010 nM	127 nM
Cc1ccc(CNc2ccnc(Nc3ccc(C#N)cc3)n2)cc1C	1190	> 1.21 µg/mL	> 1.21 µg/mL	9 nM	3670 nM	3 nM
N#Cc1ccc(Nc2nccc(NCc3ccc(F)cc3F)n2)cc1	245	> 1.41 µg/mL	> 1.41 µg/mL	56 nM	4180 nM	16.9 nM
O=C1Nc2ccc(Cl)cc2[C@@](C#CC2CC2)(C(F)(F)F)O1 [EFAVIRENZ]					> 6340 nM	6.3 nM
Cc1cc(C#N)cc(C)c1Oc1nc(Nc2ccc(C#N)cc2)nc(N)c1Br [ETRAVIRINE]					> 4590 nM	
Cc1ccnc2c1NC(=O)c1cccnc1N2C1CC1 [NEVIRAPINE]			≥ 2.02 µg/mL		> 15000 nM	
